According to US20080188449A1, “Treatment of Conditions Caused By Calcium Abnormalities” (priority 2004, published 2008):

System: NFκB transactivation
Experiment: κB-luciferase reporter assay (TNF-α induced)
Format: cell-based
Procedure: Having established that triptolide induced cell death is dependent upon free calcium concentration, Applicants next determined if this was also a requirement for the inhibition of NFκB transcription. HeLa cells were transiently transfected with the κB-luciferase reporter construct for 8 hours before being washed and then cultured in the presence or absence of calcium containing medium for 16 hours. Triptolide (100 nM) was pre-incubated with cells for 1 hour before addition of 15 ng/ml of TNF-α for 4 hours.
As an additional experiment, transcriptional activity was also assessed by site-directed calcium buffering. HeLa cells were co-transfected with the κB-luciferase plasmid as well as one of the following constructs: GFP empty vector, NES-PV-GFP, or NLS-PV-GFP and proper GFP localization was confirmed. Cells were grown in the presence of calcium for 24 hours before the addition of 100 nM triptolide and 15 ng/ml TNF-α.
NFκB transactivation was examined using the κb-luciferase reporter construct. HeLa cells were transiently transfected and pre-treated with 0-100 nM triptolide for one hour prior to TNF-α addition. Cells were assessed for NFκB driven luciferase expression after an additional five hours of incubation, at which time TNF-α had induced transcriptional activity by approximately 15-fold in control cells. […] The results thus far support a divergence of triptolide-mediated functions: the pathway regulating growth arrest/death is more sensitive to triptolide and calcium than the mechanism leading to transcriptional repression of NFκB.
Based upon Applicants' studies examining the concentration dependent effect of triptolide on the two measured biological endpoints, cell death and transcriptional repression, Applicants wanted to determine how modulating triptolide's structure may also discriminate between the two pathways. For cell viability assays, HeLa cells were incubated with 0, 0.1, 1, or 10 μM of each analog or triptolide for 24 hours and then counted using trypan blue dye exclusion. […] NFκB transcriptional inhibition was measured using the κB-luciferase assay as previously described following 5 hours of incubation with each analog (0-10 μM) and TNF-α addition.
A triple κB promoter-Luciferase reporter construct was a gift of Sankar Ghosh (Yale University). HeLa cells were plated at a density of 2×10^5 in 12 well plates and transfected with 100 ng of the κB-Luciferase plasmid plus Lipofectamine 2000 (Invitrogen) for 24 hours before the addition of 100 nM triptolide for one hour and 15 ng/ml of recombinant (human) TNF-α (Roche) for an additional five hours. The transfection efficiency of HeLa was determined to be 80-90%, and all samples were normalized to protein concentration. Luciferase assays were performed using the Firefly luciferase kit as per manufacturer's protocol (Promega) and results obtained on the Wallac Victor2 1420 Multilabel Counter (Perkin Elmer).

## CC(C)[C@]12O[C@H]1[C@@H]1O[C@]13[C@]1(O[C@H]1C[C@H]1C4=C(CC[C@@]13C)C(=O)OC4)[C@@H]2O [triptolide, Triptolide]
10 nM, 6 hours
  TNF-α driven transcriptional activity of NFκB: did not inhibit
25 nM, 6 hours
  TNF-α driven transcriptional activity of NFκB: did not inhibit
50 nM, 6 hours
  suppression of NFκB transcriptional activity: 20%
0.1 μM, 5 hours with TNF-α, analog study
  inhibition at 0.1 µM: > 60%
100 nM, 6 hours, average
  inhibition of NFκB transcriptional activity: 60%
100 nM, GFP vector, NES-PV-GFP or NLS-PV-GFP co-transfected
  NFκB transactivation: retained the ability to suppress NFκB transactivation in all experimental conditions
100 nM, presence and absence of calcium
  TNF-α induced NFκB transactivation: effectively inhibited
1 or 10 μM, 5 hours
  NFκB transcriptional activity at higher concentration: attenuated further
